Ends that are not written are not given here.
Biological target: T1, sRAGE (Homo sapiens, UniProt Q15109)
T1 construct: the soluble extracellular part of RAGE (sRAGE); purchased Abcam
Test: Microscale thermophoresis, interaction with sRAGE
Assay type: binding
Conditions: MST, Monolith NT.115; 50 nM RED-tris-NTA-labeled His-tag sRAGE; peptide 6.1 nM to 200 μM; 4% DMSO, 20% glycerol; mean ± SD, n = 4–5; read-out: dissociation constant (Kd) with sRAGE

T1 sequence (Q15109 23-342 limits assumed): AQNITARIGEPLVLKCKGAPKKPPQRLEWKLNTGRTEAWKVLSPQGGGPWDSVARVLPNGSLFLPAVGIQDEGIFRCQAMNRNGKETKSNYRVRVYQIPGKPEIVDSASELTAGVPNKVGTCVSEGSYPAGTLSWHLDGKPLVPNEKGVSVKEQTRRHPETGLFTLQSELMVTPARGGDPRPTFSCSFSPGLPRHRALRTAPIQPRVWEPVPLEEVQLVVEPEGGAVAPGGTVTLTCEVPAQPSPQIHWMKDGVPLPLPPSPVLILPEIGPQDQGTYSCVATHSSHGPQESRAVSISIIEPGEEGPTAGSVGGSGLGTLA

LVFFAEDVGSNKGAIIGLMVGGVVIA [Aβ17 − 42] showed a Kd of 10 ± 5 µM.
